Results published in patent US12291537B2, “Compounds, compositions and methods” (priority 2022, dated 2025).
Square brackets hold non-standard residues; d marks the D form. Peptide text beside a SMILES is read from it. * marks the point of attachment. Dolaproine = CO[C@@H]([C@@H]1CCCN1)[C@@H](C)C(=O)O; Dil = CC[C@H](C)[C@H](NC)[C@@H](CC(=O)O)OC; X1 = C[C@@H](N*)[C@@H](O)c1ccccc1; NMeV = CN[C@H](C(=O)O)C(C)C

Experiments:
Format in all cases: cell-based
MDA-MB-468 (TNBC) cells = test: Cytotoxicity testing of compounds (cell titer-Glo)
Experimental: (§1) They were then incubated at 37° C., 5% CO2 for overnight. […] After 5 days, 30 μL cell titer-Glo Luminescent buffer was added to each well and the plate was incubated for 20 min at room temperature. Luminescence signal was detected by the Envison microplatereader.

[1] = Cytotoxicity testing of compounds (cell titer-Glo), second round; settings: human
Experimental: (§2) HT-29 (colorectal cancer) and MDA-MB-468 (TNBC) cells were harvested and seeded with 3000 cell per well into 96-well cell culture plates respectively. They were then incubated at 37° C., 5% CO2 for overnight. Each compound was diluted 3-fold from 500 nM, and added to each well respectively. After 5 days, 30 μL cell titer-Glo Luminescent buffer was added to each well and the plate was incubated for 20 min at room temperature. Luminescence signal was detected by the Envison microplatereader.
(§3) In a second round of testing, C-2a and C-2b, along with 6 other compounds (C-1a, C-1b, C-3a, C-3b, C-5a, and C-4a) were tested with the same cell lines plus A549, a NSCLC cell line.

[2] = Cytotoxicity testing of compounds (cell titer-Glo); settings: human, Min cell viability
Experimental: as §1

[3] = test system: HT-29 (colorectal cancer) cells; test: Cytotoxicity testing of compounds (cell titer-Glo)
Experimental: as §1

A549, a NSCLC cell line = test: Cytotoxicity testing of compounds (cell titer-Glo), second round; settings: A549, second round (Table 2)
Experimental: as §2, §3

[4] = test system: HT-29, MDA-MB-468 and A549 cells; test: Cytotoxicity testing of compounds, text statements over the cell lines; settings: first round; HT-29 and MDA-MB-468
Experimental: as §2, §3

[5] = Homo sapiens, second round (Table 2)
[6] = Homo sapiens, HT-29, 120 h, HT29, first round (Table 1), 5 days
[7] = Homo sapiens, HT-29, HT29, second round (Table 2)
[8] = Homo sapiens, 120 h, first round (Table 1), 5 days
[9] = HT29, first round (Table 1), 5 days

Structure (SMILES)	IC50 (MDA-MB-468 (TNBC) cells; [5])	viability at 5 days [1]	IC50 [3, 7]	IC50 (A549, a NSCLC cell line; Homo sapiens)	inhibition of cells proliferation [4]	further results
CC[C@@]1(O)C(=O)OCc2c1cc1n(c2=O)Cc2c-1nc1cc(F)c(C)c3c1c2[C@H](Nc1cccc(CN)c1)CC3 [Compound C-4a]	115 nM	83%				
CCc1c(F)cc2nc3c(c4c2c1CC[C@@H]4N)Cn1c-3cc2c(c1=O)COC(=O)[C@]2(O)CC [Compound C-2b]	5.2 nM	23.6%	~52.7 nM	24.2 nM	inhibited cells proliferation in a concentration-dependent manner	viability at 5 days [2]: 1.9%; IC50 [3, 6]: 5.6 nM; Min cell viability ([3]; human, 5 days): 3.7; IC50 (MDA-MB-468 (TNBC) cells; [8]): 1 nM
CC[C@@]1(O)C(=O)OCc2c1cc1n(c2=O)Cc2c-1nc1cc(F)c(C)c3c1c2[C@@H](NC(=O)CO)CC3 [DXD, reference compound]					inhibited cells proliferation in a concentration-dependent manner	IC50 [3, 9]: 25.2 nM; Min cell viability [3, 9]: 4.0; IC50 ([3]; HT29, second round (Table 2)): 105 nM; Min cell viability ([3]; HT29, second round (Table 2)): 11.4; IC50 (MDA-MB-468 (TNBC) cells; first round (Table 1), 5 days): 3.2 nM; Min cell viability (MDA-MB-468 (TNBC) cells; first round (Table 1), 5 days): 1.2; IC50 (MDA-MB-468 (TNBC) cells; second round (Table 2)): 4.2 nM; Min cell viability (MDA-MB-468 (TNBC) cells; second round (Table 2)): 4.1; IC50 (A549, a NSCLC cell line): 126 nM; Min cell viability (A549, a NSCLC cell line): 28.4
CC[C@H](C)[C@@H]([C@@H](CC(=O)N1CCC[C@H]1[C@H](OC)[C@@H](C)C(=O)N[C@H](C)[C@@H](O)c1ccccc1)OC)N(C)C(=O)[C@@H](NC(=O)[C@@H](NC)C(C)C)C(C)C [MMAE, reference compound] (H-[NMeV]V[Dil][Dolaproine]-X1)					inhibited cells proliferation in a concentration-dependent manner	IC50 [3, 9]: ~0.5 nM; Min cell viability [3, 9]: 21.3; IC50 ([3]; HT29, second round (Table 2)): 1.1 nM; Min cell viability ([3]; HT29, second round (Table 2)): 35.5; IC50 (MDA-MB-468 (TNBC) cells; first round (Table 1), 5 days): 0.1 nM; Min cell viability (MDA-MB-468 (TNBC) cells; first round (Table 1), 5 days): 4.6; IC50 (MDA-MB-468 (TNBC) cells; second round (Table 2)): 0.3 nM; Min cell viability (MDA-MB-468 (TNBC) cells; second round (Table 2)): 6.3; IC50 (A549, a NSCLC cell line): 2 nM
CC[C@@]1(O)C(=O)OCc2c1cc1n(c2=O)Cc2c-1nc1cc(F)c(C(C)C)c3c1c2[C@@H](N)CC3 [Compound C-3b]	17.6 nM	30.6%		114 nM		
CC[C@@]1(O)C(=O)OCc2c1cc1n(c2=O)Cc2c-1nc1cc(F)c(C)c3c1c2CC[C@@H]3N [Compound C-1a]	3.6 nM	20.3%	21.1 nM	16.6 nM		
CC[C@@]1(O)C(=O)OCc2c1cc1n(c2=O)Cc2c-1nc1cc(F)c(C)c3c1c2CC(N)C3 (mixture of isomers) [Compound C-5a]	2.4 nM	19.4%	26.6 nM	22 nM		
CCc1c(F)cc2nc3c(c4c2c1CC[C@H]4N)Cn1c-3cc2c(c1=O)COC(=O)[C@]2(O)CC [Compound C-2a]	5.6 nM	19.7%	40.1 nM	18.9 nM	inhibited cells proliferation in a concentration-dependent manner	viability at 5 days [2]: 4.6%; IC50 [3, 6]: 5.7 nM; Min cell viability ([3]; human, 5 days): 4.8; IC50 (MDA-MB-468 (TNBC) cells; [8]): 1.6 nM
CC[C@@]1(O)C(=O)OCc2c1cc1n(c2=O)Cc2c-1nc1cc(F)c(C)c3c1c2CC[C@H]3N [Compound C-1b]	3.1 nM	14.5%	18.5 nM	13.7 nM		
CC[C@@]1(O)C(=O)OCc2c1cc1n(c2=O)Cc2c-1nc1cc(F)c(C(C)C)c3c1c2[C@H](N)CC3 [Compound C-3a]	8.8 nM	23.8%	76.6 nM	36.6 nM		
